In patent US9932637B2, “Genetic polymorphisms associated with cardiovascular disorders and drug response, methods of detection and uses thereof” (CELERA CORPORATION, priority 2003, dated 2018):

Tested on: patients with prior myocardial infarction (CARE study)
Assay: CARE: association of SNPs with pravastatin treatment in cardiovascular events prevention (logistic regression, odds ratio pravastatin vs placebo by genotype; Table 8)
Type: in vivo, human
Excerpt: In order to identify genetic markers associated with acute coronary events (e.g. MI, stroke, unstable angina, congestive heart failure, etc.) or response to statin treatment for the prevention of coronary events, samples from the Cholesterol and Recurrent Events (CARE) study (a randomized multicentral double-blinded trial on secondary prevention of acute coronary events with pravastatin) (Sacks et al., 1991, Am. J. Cardiol. 68: 1436-1446) were genotyped. A well-documented myocardial infarction (MI) was one of the enrollment criteria for entry into the CARE study. Patients were enrolled in the CARE trial from 80 participating study centers. […] Patients were randomized to receive either 40 mg of pravastatin once daily or a matching placebo. The primary endpoint of the trial was death from coronary heart disease and the median duration of follow-up was 5.0 years (range, 4.0 to 6.2 years). […] Secondary endpoints of other related cardiovascular or metabolic disease events, and changes in clinical variables were also recorded in pravastatin-treated and placebo groups. All individuals included in the study had signed a written informed consent form and the study protocol was approved by the respective Institutional Review Boards (IRBs).
For genotyping SNPs in CARE patient samples, DNA was extracted from blood samples using conventional DNA extraction methods such as the QIA-amp kit from Qiagen. Genotypes were obtained on an ABI PRISM® 7900HT Sequence Detection PCR system (Applied Biosystems, Foster City, Calif.) by kinetic allele-specific PCR, similar to the method described by Germer et al. (Germer S., Holland M. J., Higuchi R. 2000, Genome Res. 10: 258-266).
Statistical analysis for association of SNPs with pravastatin treatment in cardiovascular events prevention (Table 8) was carried out using an overall logistic regression model that included an intercept, a parameter for the effect of a genotype containing two rare alleles versus a genotype containing no rare alleles, a parameter for the effect of a genotype containing one rare allele versus a genotype containing no rare alleles, a parameter for the effect of use of pravastatin versus the use of placebo, and parameters for the interaction effects between SNP genotypes and pravastatin use. The test of the overall model is a chi-square test with two degrees of freedom for analyses containing all three genotypes, and one degree of freedom for analyses containing two genotypes.
Effect sizes were estimated through odds ratios (pravastatin group versus placebo) for carriers of each genotype (groups of 0, 1, and 2 minor allele carriers). The effect was considered to be significant if p-value for testing whether any of the interactions between SNP genotypes and pravastatin use were <0.05. […] Odds ratios less than one indicate that the specific SNP allele has a protective effect and odds ratios greater than one indicate that the specific SNP allele has an adverse effect.

[1] = IL9 hCV3275199, All Patients, 0 Rare Alleles, Prava arm
[2] = IL9 hCV3275199, All Patients, 1 Rare Allele, Prava arm
[3] = IL9 hCV3275199, All Patients, 2 Rare Alleles, Prava arm
[4] = IL12A hCV16053900, All Patients, 0 Rare Alleles, Prava arm
[5] = IL12A hCV16053900, All Patients, 1 Rare Allele, Prava arm
[6] = IL12A hCV16053900, All Patients, 2 Rare Alleles, Prava arm
[7] = KLK14 hCV16044337, All Patients, 0 Rare Alleles, Prava arm
[8] = KLK14 hCV16044337, All Patients, 1 Rare Allele, Prava arm
[9] = KLK14 hCV16044337, All Patients, 2 Rare Alleles, Prava arm
[10] = LAMA5 hCV25629492, All Patients, 0 Rare Alleles, Prava arm
[11] = LAMA5 hCV25629492, All Patients, 1 Rare Allele, Prava arm
[12] = LAMA5 hCV25629492, All Patients, 2 Rare Alleles, Prava arm
[13] = LRP8 hCV190754, All Patients, Hosp. for Unstable Angina
[14] = MARK3 hCV25926771, All Patients, 0 Rare Alleles, Prava arm
[15] = MARK3 hCV25926771, All Patients, 1 Rare Allele, Prava arm
[16] = MJD hCV16189421, All Patients, 0 Rare Alleles, Prava arm

CC[C@H](C)C(=O)O[C@H]1C[C@H](O)C=C2C=C[C@H](C)[C@H](CC[C@@H](O)C[C@@H](O)CC(=O)O)[C@H]21 [pravastatin]
Nonfatal MI (Probable/Definite), n/total (%) [1]: (10.4%)
Nonfatal MI (def & prob), n/total (%) [1]: (9.8%)
Fatal/Nonfatal MI (def & prob), n/total (%) [2]: (6.0%)
MI (Fatal/Nonfatal), n/total (%) [2]: (6.0%)
Nonfatal MI (Probable/Definite), n/total (%) [2]: (5.7%)
Nonfatal MI (def & prob), n/total (%) [2]: (5.7%)
Fatal/Nonfatal MI (def & prob), n/total (%) [3]: (6.1%)
MI (Fatal/Nonfatal), n/total (%) [3]: (6.1%)
Nonfatal MI (Probable/Definite), n/total (%) [3]: (6.1%)
Nonfatal MI (def & prob), n/total (%) [3]: (6.1%)
Coronary Artery Bypass Graft, n/total (%) [4]: (4.9%)
Coronary Artery Bypass or Revascularization, n/total (%) [4]: (11.0%)
Coronary Artery Bypass Graft, n/total (%) [5]: (8.9%)
Coronary Artery Bypass or Revascularization, n/total (%) [5]: (16.2%)
Coronary Artery Bypass Graft, n/total (%) [6]: (7.2%)
Coronary Artery Bypass or Revascularization, n/total (%) [6]: (14.8%)
Coronary Artery Bypass Graft, n/total (%) [7]: (8.7%)
Definite Nonfatal MI, n/total (%) [7]: (7.1%)
Fatal CHD/Definite Nonfatal MI, n/total (%) [7]: (9.5%)
Fatal/Nonfatal MI (def & prob), n/total (%) [7]: (9.8%)
MI (Fatal/Nonfatal), n/total (%) [7]: (10.1%)
Nonfatal MI (Probable/Definite), n/total (%) [7]: (9.7%)
Nonfatal MI (def & prob), n/total (%) [7]: (9.1%)
Coronary Artery Bypass Graft, n/total (%) [8]: (6.2%)
Definite Nonfatal MI, n/total (%) [8]: (7.2%)
Fatal CHD/Definite Nonfatal MI, n/total (%) [8]: (9.9%)
Fatal/Nonfatal MI (def & prob), n/total (%) [8]: (10.0%)
MI (Fatal/Nonfatal), n/total (%) [8]: (10.2%)
Nonfatal MI (Probable/Definite), n/total (%) [8]: (9.4%)
Nonfatal MI (def & prob), n/total (%) [8]: (9.1%)
Coronary Artery Bypass Graft, n/total (%) [9]: (5.6%)
Definite Nonfatal MI, n/total (%) [9]: (4.4%)
Fatal CHD/Definite Nonfatal MI, n/total (%) [9]: (5.6%)
Fatal/Nonfatal MI (def & prob), n/total (%) [9]: (6.9%)
MI (Fatal/Nonfatal), n/total (%) [9]: (6.9%)
Nonfatal MI (Probable/Definite), n/total (%) [9]: (6.3%)
Nonfatal MI (def & prob), n/total (%) [9]: (6.3%)
Definite Nonfatal MI, n/total (%) [10]: (8.8%)
Fatal/Nonfatal MI (def & prob), n/total (%) [10]: (12.1%)
Nonfatal MI (def & prob), n/total (%) [10]: (11.3%)
Definite Nonfatal MI, n/total (%) [11]: (5.4%)
Fatal/Nonfatal MI (def & prob), n/total (%) [11]: (7.7%)
Nonfatal MI (def & prob), n/total (%) [11]: (7.4%)
Definite Nonfatal MI, n/total (%) [12]: (4.1%)
Fatal/Nonfatal MI (def & prob), n/total (%) [12]: (7.7%)
Nonfatal MI (def & prob), n/total (%) [12]: (5.4%)
Hosp. for Unstable Angina, n/total (%) (LRP8 hCV190754, All Patients, 0 Rare Alleles, Prava, n/total 98/560): (17.5%)
Hosp. for Unstable Angina, n/total (%) (LRP8 hCV190754, All Patients, 1 Rare Allele, Prava, n/total 100/712): (14.0%)
Hosp. for Unstable Angina, n/total (%) (LRP8 hCV190754, All Patients, 2 Rare Alleles, Prava, n/total 32/244): (13.1%)
Prava vs. Placebo Odds Ratio, 0 Rare Alleles [13]: 1.21
Prava vs. Placebo Odds Ratio, 1 Rare Alleles [13]: 0.70
Prava vs. Placebo Odds Ratio, 2 Rare Alleles [13]: 0.54
Definite Nonfatal MI, n/total (%) [14]: (6.7%)
Fatal CHD/Definite Nonfatal MI, n/total (%) [14]: (9.9%)
Definite Nonfatal MI, n/total (%) [15]: (7.0%)
Fatal CHD/Definite Nonfatal MI, n/total (%) [15]: (9.1%)
Fatal/Nonfatal MI (def & prob), n/total (%) [16]: (8.4%)
Hosp. for Unstable Angina, n/total (%) [16]: (14.4%)
